Measurements from US12036197B2, “Composition for improving bioavailability of drugs” (priority 2019, dated 2024).
Values belong to the compound of their own block, whether it stands above or below them. Where a SMILES comes first, the peptide text is derived from it.

Columns and labels:
[1] = PK test for small-intestinal administration of Bivalirudin (ELISA); format: in vivo; settings: SD rats
Description: (§1) Laboratory Animals: Adult Male SD Rats.
(§2) The plasma was collected and subjected to quick freezing.

in vivo = assay: in vivo
Description: as §1, §2

[2] = PK test for small-intestinal administration of Oxytocin (ELISA); format: in vivo; settings: SD rats
Description: as §1, §2

[3] = PK test for small-intestinal administration of Vasopressin (ELISA); format: in vivo; settings: SD rats
Description: as §1, §2

[4] = PK test for small-intestinal administration of Gramicidin (ELISA); format: in vivo; settings: SD rats
Description: as §1, §2

[5] = PK test for small-intestinal administration of Teduglutide (ELISA); format: in vivo; settings: SD rats
Description: The composition of the present invention: Tween 80, Carbomer 910, carboxymethyl Chitosan, and Sodium Tartrate, in a weight ratio of 25:8:8:80.
as §1, §2

[6] = PK test for small-intestinal administration of Thymosin alpha-1 (ELISA); format: in vivo; settings: SD rats
Description: as §1, §2

[7] = PK test for small-intestinal administration of Mecasermin (ELISA); format: in vivo; settings: SD rats
Description: as §1, §2

[8] = PK test for small-intestinal administration of Octreotide (ELISA); format: in vivo; settings: SD rats
Description: as §1, §2

[9] = PK test for small-intestinal administration of Growth Hormone (ELISA); format: in vivo; settings: SD rats
Description: as §1, §2

[10] = PK test for small-intestinal administration of ACTH (ELISA); format: in vivo; settings: SD rats
Description: as §1, §2

[11] = PK test for small-intestinal administration of Teriparatide (ELISA); format: in vivo; settings: SD rats
Description: as §1, §2

[12] = small-intestinal administration at 200 μg/kg without composition
[13] = rat, in vivo, ei 200 μg/kg with composition sodium lauryl sulfate, carbomer, chitosan, sodium citrate 20:6.5:6.5:65 (1:5), vs iv 1 μg/kg

Compound: CC[C@H](C)[C@H](NC(=O)[C@H](CCC(=O)O)NC(=O)[C@H](CCC(=O)O)NC(=O)[C@H](Cc1ccccc1)NC(=O)[C@H](CC(=O)O)NC(=O)CNC(=O)[C@H](CC(N)=O)NC(=O)CNC(=O)CNC(=O)CNC(=O)CNC(=O)[C@@H]1CCCN1C(=O)[C@H](CCCNC(=N)N)NC(=O)[C@@H]1CCCN1C(=O)[C@H](N)Cc1ccccc1)C(=O)N1CCC[C@H]1C(=O)N[C@@H](CCC(=O)O)C(=O)N[C@@H](CCC(=O)O)C(=O)N[C@@H](Cc1ccc(O)cc1)C(=O)N[C@@H](CC(C)C)C(=O)O [Bivalirudin]
blood concentration [1, 12]: lower than the detection limit of ELISA
bioavailability ([1]; rat, in vivo, ei 200 μg/kg with composition sodium lauryl sulfate, carbomer, chitosan, citric acid 19:6.5:7:67 (1:5), vs iv 1 μg/kg): 1.63%

Compound: CC(C)C[C@H](NC(=O)CNC(=O)[C@H](Cc1ccc(O)cc1)NC(=O)[C@H](CO)NC(=O)[C@H](Cc1c[nH]c2ccccc12)NC(=O)[C@H](Cc1cnc[nH]1)NC(=O)[C@@H]1CCC(=O)N1)C(=O)N[C@@H](CCCNC(=N)N)C(=O)N1CCC[C@H]1C(=O)NCC(N)=O [Gonadorelin]
blood concentration (in vivo; SD rats, small-intestinal administration at 200 μg/kg without composition): lower than the detection limit of ELISA
bioavailability (in vivo; male, SD, rat, plasma, 200 μg/kg): 1.58%

blood concentration [2, 12]: lower than the detection limit of ELISA
bioavailability ([2]; male, rat, plasma, ei 200 μg/kg with composition sodium lauryl sulfate, carbomer 934, water-soluble chitosan, disodium edetate 24:7.5:7:75 (1:5), vs iv 1 μg/kg): 2.58%
Compound: CC[C@H](C)[C@@H]1NC(=O)[C@H](Cc2ccc(O)cc2)NC(=O)[C@@H](N)CSSC[C@@H](C(=O)N2CCC[C@H]2C(=O)N[C@@H](CC(C)C)C(=O)NCC(N)=O)NC(=O)[C@H](CC(N)=O)NC(=O)[C@H](CCC(N)=O)NC1=O [Oxytocin]

Compound: NC(=O)CC[C@@H]1NC(=O)[C@H](Cc2ccccc2)NC(=O)[C@H](Cc2ccc(O)cc2)NC(=O)[C@@H](N)CSSC[C@@H](C(=O)N2CCC[C@H]2C(=O)N[C@@H](CCCN=C(N)N)C(=O)NCC(N)=O)NC(=O)[C@H](CC(N)=O)NC1=O [Vasopressin]
blood concentration [3, 12]: lower than the detection limit of ELISA
bioavailability ([3]; male, rat, plasma, ei 200 μg/kg with composition sodium lauryl sulfate, carbomer, chitosan, sodium citrate 23:8:7.5:80 (1:5), vs iv 1 μg/kg): 1.81%

Compound: Gramicidin D
bioavailability of small-intestinal administration ([4]; ei 200 μg/kg with composition sodium lauryl sulfate, carbomer, chitosan, sodium citrate 19:6:6:60 (1:5), vs iv 1 μg/kg): 1.18%
blood concentration [4, 12]: lower than the detection limit of ELISA

blood concentration [5, 12]: lower than the detection limit of ELISA
bioavailability ([5]; male, rat, plasma, ei 200 μg/kg with composition Tween 80, Carbomer 910, carboxymethyl Chitosan, Sodium Tartrate 25:8:8:80 (1:5), vs iv 1 μg/kg): 2.13%
Compound: CC[C@H](C)[C@H](NC(=O)[C@H](Cc1ccccc1)NC(=O)[C@H](CC(=O)O)NC(=O)[C@H](CCCNC(=N)N)NC(=O)[C@H](C)NC(=O)[C@H](C)NC(=O)[C@H](CC(C)C)NC(=O)[C@H](CC(N)=O)NC(=O)[C@H](CC(=O)O)NC(=O)[C@H](CC(C)C)NC(=O)[C@@H](NC(=O)[C@@H](NC(=O)[C@H](CC(N)=O)NC(=O)[C@H](CCSC)NC(=O)[C@H](CCC(=O)O)NC(=O)[C@H](CC(=O)O)NC(=O)[C@H](CO)NC(=O)[C@H](Cc1ccccc1)NC(=O)[C@H](CO)NC(=O)CNC(=O)[C@H](CC(=O)O)NC(=O)CNC(=O)[C@@H](N)Cc1c[nH]cn1)[C@@H](C)O)[C@@H](C)CC)C(=O)N[C@@H](CC(N)=O)C(=O)N[C@@H](Cc1c[nH]c2ccccc12)C(=O)N[C@@H](CC(C)C)C(=O)N[C@H](C(=O)N[C@@H](CCC(N)=O)C(=O)N[C@H](C(=O)N[C@@H](CCCCN)C(=O)N[C@H](C(=O)N[C@H](C(=O)N[C@@H](CC(=O)O)C(=O)O)[C@@H](C)O)[C@@H](C)CC)[C@@H](C)O)[C@@H](C)CC [Teduglutide]

blood concentration [6, 12]: lower than the detection limit of ELISA
bioavailability [6, 13]: 0.65%
Compound: CC[C@H](C)[C@H](NC(=O)[C@H](CCC(=O)O)NC(=O)[C@H](CO)NC(=O)[C@H](CO)NC(=O)[C@@H](NC(=O)[C@H](CC(=O)O)NC(=O)[C@@H](NC(=O)[C@H](C)NC(=O)[C@H](C)NC(=O)[C@H](CC(=O)O)NC(=O)[C@H](CO)NC(C)=O)C(C)C)[C@@H](C)O)C(=O)N[C@H](C(=O)N[C@H](C(=O)N[C@@H](CCCCN)C(=O)N[C@@H](CC(=O)O)C(=O)N[C@@H](CC(C)C)C(=O)N[C@@H](CCCCN)C(=O)N[C@@H](CCC(=O)O)C(=O)N[C@@H](CCCCN)C(=O)N[C@@H](CCCCN)C(=O)N[C@@H](CCC(=O)O)C(=O)N[C@H](C(=O)N[C@H](C(=O)N[C@@H](CCC(=O)O)C(=O)N[C@@H](CCC(=O)O)C(=O)N[C@@H](C)C(=O)N[C@@H](CCC(=O)O)C(=O)N[C@@H](CC(N)=O)C(=O)O)C(C)C)C(C)C)[C@@H](C)O)[C@@H](C)O [Thymosin alpha-1] (Ac-SDAAVDTSSEITTKDLKEKKEVVEEAEN-OH)

Compound: Mecasermin
bioavailability of small-intestinal administration ([7]; ei 200 μg/kg with composition sodium lauryl sulfate, carbomer, chitosan, sodium citrate 21:6:7:65 (1:5), vs iv 1 μg/kg): 1.38%
blood concentration [7, 12]: lower than the detection limit of ELISA

Compound: C[C@@H](O)[C@@H]1NC(=O)[C@H](CCCCN)NC(=O)[C@@H](Cc2c[nH]c3ccccc23)NC(=O)[C@H](Cc2ccccc2)NC(=O)[C@@H](NC(=O)[C@H](N)Cc2ccccc2)CSSC[C@@H](C(=O)N[C@H](CO)[C@@H](C)O)NC1=O [Octreotide]
blood concentration [8, 12]: lower than the detection limit of ELISA
bioavailability ([8]; male, rat, plasma, ei 200 μg/kg with composition sodium lauryl sulfate, carbomer, chitosan, sodium citrate 21:7:6:69 (1:5), vs iv 1 μg/kg): 1.71%

Compound: Growth Hormone: Growth Hormone (rhGH)
bioavailability of small-intestinal administration ([9]; ei 200 μg/kg with composition sodium lauryl sulfate, carbomer, chitosan, sodium citrate 20:6.5:6.5:65 (1:5), vs iv 1 μg/kg): 0.32%
blood concentration [9, 12]: lower than the detection limit of ELISA

blood concentration [10, 12]: lower than the detection limit of ELISA
bioavailability [10, 13]: 1.86%
Compound: CSCC[C@H](NC(=O)[C@H](CO)NC(=O)[C@H](Cc1ccc(O)cc1)NC(=O)[C@@H](N)CO)C(=O)N[C@@H](CCC(=O)O)C(=O)N[C@@H](Cc1cnc[nH]1)C(=O)N[C@@H](Cc1ccccc1)C(=O)N[C@@H](CCCNC(=N)N)C(=O)N[C@@H](Cc1c[nH]c2ccccc12)C(=O)NCC(=O)N[C@@H](CCCCN)C(=O)N1CCC[C@H]1C(=O)N[C@H](C(=O)NCC(=O)N[C@@H](CCCCN)C(=O)N[C@@H](CCCCN)C(=O)N[C@@H](CCCNC(=N)N)C(=O)N[C@@H](CCCNC(=N)N)C(=O)N1CCC[C@H]1C(=O)N[C@H](C(=O)N[C@@H](CCCCN)C(=O)N[C@H](C(=O)N[C@@H](Cc1ccc(O)cc1)C(=O)N1CCC[C@H]1C(=O)N[C@@H](CC(N)=O)C(=O)NCC(=O)N[C@@H](C)C(=O)N[C@@H](CCC(=O)O)C(=O)N[C@@H](CC(=O)O)C(=O)N[C@@H](CCC(=O)O)C(=O)N[C@@H](CO)C(=O)N[C@@H](C)C(=O)N[C@@H](CCC(=O)O)C(=O)N[C@@H](C)C(=O)N[C@@H](Cc1ccccc1)C(=O)N1CCC[C@H]1C(=O)N[C@@H](CC(C)C)C(=O)N[C@@H](CCC(=O)O)C(=O)N[C@@H](Cc1ccccc1)C(=O)O)C(C)C)C(C)C)C(C)C [ACTH] (H-SYSMEHFRWGKPVGKKRRPVKVYPNGAEDESAEAFPLEF-OH)

blood concentration [11, 12]: lower than the detection limit of ELISA
bioavailability ([11]; male, rat, plasma, ei 200 μg/kg with composition sodium lauryl sulfate, carbomer, chitosan, sodium citrate 20:6.5:6.5:65 (1:5), vs iv 1 μg/kg): 2.08%
Compound: CC[C@H](C)[C@H](NC(=O)[C@H](CCC(=O)O)NC(=O)[C@H](CO)NC(=O)[C@@H](NC(=O)[C@@H](N)CO)C(C)C)C(=O)N[C@@H](CCC(N)=O)C(=O)N[C@@H](CC(C)C)C(=O)N[C@@H](CCSC)C(=O)N[C@@H](Cc1cnc[nH]1)C(=O)N[C@@H](CC(N)=O)C(=O)N[C@@H](CC(C)C)C(=O)NCC(=O)N[C@@H](CCCCN)C(=O)N[C@@H](Cc1cnc[nH]1)C(=O)N[C@@H](CC(C)C)C(=O)N[C@@H](CC(N)=O)C(=O)N[C@@H](CO)C(=O)N[C@@H](CCSC)C(=O)N[C@@H](CCC(=O)O)C(=O)N[C@@H](CCCN=C(N)N)C(=O)N[C@H](C(=O)N[C@@H](CCC(=O)O)C(=O)N[C@@H](Cc1c[nH]c2ccccc12)C(=O)N[C@@H](CC(C)C)C(=O)N[C@@H](CCCN=C(N)N)C(=O)N[C@@H](CCCCN)C(=O)N[C@@H](CCCCN)C(=O)N[C@@H](CC(C)C)C(=O)N[C@@H](CCC(N)=O)C(=O)N[C@@H](CC(=O)O)C(=O)N[C@H](C(=O)N[C@@H](Cc1cnc[nH]1)C(=O)N[C@@H](CC(N)=O)C(=O)N[C@@H](Cc1ccccc1)C(=O)O)C(C)C)C(C)C [Teriparatide]
